Measured values from PMC12136037, “Type II kinase inhibitors that target Parkinson’s disease–associated LRRK2” (Science Advances, 2025).

Experiments:
Experiment in all cases: DSF 100 kinase selectivity screen;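 note: compound tested at 20 µM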
Format in all cases: binding
[1] = molecular target: T1, ~100 representative kinases (Homo sapiens, UniProt P11362); conditions: protein FGFR1; average of three replicates
T1 construct: Recombinant protein kinase domains with a concentration of 2 μM
Procedure: (§1) Recombinant protein kinase domains with a concentration of 2 μM were mixed with a 20 μM compound solution in dimethyl sulfoxide (DMSO), 20 mM Hepes (pH 7.5), and 500 mM NaCl. SYPRO Orange (5000×, Invitrogen) was added as a fluorescence probe (1μl/ml). Subsequently, temperature-dependent protein unfolding profiles were measured using the QuantStudio 5 realtime PCR machine (Thermo Fisher Scientific, Waltham, MA, USA). […] The temperature was raised with a step rate of 3°C/min. […] Differences in melting temperature are given as ΔTm values in degrees Celsius. […]

[2] = molecular target: T2, ~100 representative kinases (Homo sapiens, UniProt P15056); conditions: Protein BRAF; average of three replicates
T2 construct: Recombinant protein kinase domains with a concentration of 2 μM
Procedure: as §1

[3] = molecular target: T3, ~100 representative kinases (Homo sapiens, UniProt P24941); conditions: Protein CDK2; average of three replicates
T3 construct: Recombinant protein kinase domains with a concentration of 2 μM
Procedure: as §1

[4] = molecular target: T4, ~100 representative kinases (Homo sapiens, UniProt P28482); conditions: protein MAPK1; average of three replicates
T4 construct: Recombinant protein kinase domains with a concentration of 2 μM
Procedure: as §1

[5] = molecular target: T5, ~100 representative kinases (Homo sapiens, UniProt P33981); conditions: Protein TTK; DSF; average of three replicates
T5 construct: Recombinant protein kinase domains with a concentration of 2 μM
T5 sequence (P33981 1-857): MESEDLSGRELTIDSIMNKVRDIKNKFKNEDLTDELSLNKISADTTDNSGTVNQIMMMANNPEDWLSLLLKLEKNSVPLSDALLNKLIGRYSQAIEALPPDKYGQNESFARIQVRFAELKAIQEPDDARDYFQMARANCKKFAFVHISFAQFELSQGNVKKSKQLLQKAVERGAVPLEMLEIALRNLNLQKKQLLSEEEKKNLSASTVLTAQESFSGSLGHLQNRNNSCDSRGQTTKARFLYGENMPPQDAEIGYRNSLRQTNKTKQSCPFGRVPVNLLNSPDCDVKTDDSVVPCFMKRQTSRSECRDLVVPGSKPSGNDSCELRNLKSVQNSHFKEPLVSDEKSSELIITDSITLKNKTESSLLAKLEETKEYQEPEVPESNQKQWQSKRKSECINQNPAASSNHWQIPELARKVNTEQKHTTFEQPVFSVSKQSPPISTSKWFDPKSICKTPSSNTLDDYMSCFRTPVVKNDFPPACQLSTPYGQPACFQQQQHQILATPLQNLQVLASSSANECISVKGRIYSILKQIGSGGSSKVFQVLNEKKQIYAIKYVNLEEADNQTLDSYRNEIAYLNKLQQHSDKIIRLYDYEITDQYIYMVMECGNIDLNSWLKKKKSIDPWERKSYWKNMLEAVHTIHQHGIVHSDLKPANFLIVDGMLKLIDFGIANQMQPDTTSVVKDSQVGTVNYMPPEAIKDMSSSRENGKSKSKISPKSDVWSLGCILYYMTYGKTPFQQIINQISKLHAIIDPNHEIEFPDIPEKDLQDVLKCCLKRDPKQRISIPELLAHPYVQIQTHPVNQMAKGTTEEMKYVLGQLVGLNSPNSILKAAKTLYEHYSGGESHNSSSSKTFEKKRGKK
Procedure: as §1

[6] = molecular target: T6, ~100 representative kinases (Homo sapiens, UniProt Q09013); conditions: Protein DMPK1; average of three replicates
T6 construct: Recombinant protein kinase domains with a concentration of 2 μM
T6 sequence (Q09013 1-629): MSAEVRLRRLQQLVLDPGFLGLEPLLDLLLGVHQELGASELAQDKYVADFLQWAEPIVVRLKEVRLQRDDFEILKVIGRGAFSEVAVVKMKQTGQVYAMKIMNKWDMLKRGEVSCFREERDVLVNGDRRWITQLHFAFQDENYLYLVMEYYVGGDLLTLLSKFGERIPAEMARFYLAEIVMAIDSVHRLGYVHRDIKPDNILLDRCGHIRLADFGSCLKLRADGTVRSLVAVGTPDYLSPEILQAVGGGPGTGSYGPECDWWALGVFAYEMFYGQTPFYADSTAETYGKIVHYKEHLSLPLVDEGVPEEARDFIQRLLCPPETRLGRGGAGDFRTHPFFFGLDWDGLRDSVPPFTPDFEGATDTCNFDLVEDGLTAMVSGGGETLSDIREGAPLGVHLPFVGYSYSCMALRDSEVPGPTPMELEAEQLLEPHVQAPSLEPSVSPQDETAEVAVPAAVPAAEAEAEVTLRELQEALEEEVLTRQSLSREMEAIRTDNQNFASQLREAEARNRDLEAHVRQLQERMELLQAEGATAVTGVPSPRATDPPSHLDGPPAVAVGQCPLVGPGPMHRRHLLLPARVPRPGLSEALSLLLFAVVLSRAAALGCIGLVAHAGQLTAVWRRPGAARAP
Procedure: as §1

[7] = molecular target: T7, ~100 representative kinases (Homo sapiens, UniProt Q14680); conditions: protein MELK; average of three replicates
T7 construct: Recombinant protein kinase domains with a concentration of 2 μM
Procedure: as §1

[8] = molecular target: T8, ~100 representative kinases (Homo sapiens, UniProt Q96SB4); conditions: Protein SRPK1; DSF; average of three replicates
T8 construct: Recombinant protein kinase domains with a concentration of 2 μM
Procedure: as §1

T4 sequence (P28482 whole entry, the tested form may be a part): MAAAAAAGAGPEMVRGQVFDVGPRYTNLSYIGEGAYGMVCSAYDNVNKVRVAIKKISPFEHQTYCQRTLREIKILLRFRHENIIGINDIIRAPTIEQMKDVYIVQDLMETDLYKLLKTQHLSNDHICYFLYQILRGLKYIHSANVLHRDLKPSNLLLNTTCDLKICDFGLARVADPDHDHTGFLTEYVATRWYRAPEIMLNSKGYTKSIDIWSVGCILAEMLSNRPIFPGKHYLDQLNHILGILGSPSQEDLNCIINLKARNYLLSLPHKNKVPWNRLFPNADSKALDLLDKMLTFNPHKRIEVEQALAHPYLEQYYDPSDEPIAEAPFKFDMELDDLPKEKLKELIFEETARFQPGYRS
T7 sequence (Q14680 whole entry, the tested form may be a part): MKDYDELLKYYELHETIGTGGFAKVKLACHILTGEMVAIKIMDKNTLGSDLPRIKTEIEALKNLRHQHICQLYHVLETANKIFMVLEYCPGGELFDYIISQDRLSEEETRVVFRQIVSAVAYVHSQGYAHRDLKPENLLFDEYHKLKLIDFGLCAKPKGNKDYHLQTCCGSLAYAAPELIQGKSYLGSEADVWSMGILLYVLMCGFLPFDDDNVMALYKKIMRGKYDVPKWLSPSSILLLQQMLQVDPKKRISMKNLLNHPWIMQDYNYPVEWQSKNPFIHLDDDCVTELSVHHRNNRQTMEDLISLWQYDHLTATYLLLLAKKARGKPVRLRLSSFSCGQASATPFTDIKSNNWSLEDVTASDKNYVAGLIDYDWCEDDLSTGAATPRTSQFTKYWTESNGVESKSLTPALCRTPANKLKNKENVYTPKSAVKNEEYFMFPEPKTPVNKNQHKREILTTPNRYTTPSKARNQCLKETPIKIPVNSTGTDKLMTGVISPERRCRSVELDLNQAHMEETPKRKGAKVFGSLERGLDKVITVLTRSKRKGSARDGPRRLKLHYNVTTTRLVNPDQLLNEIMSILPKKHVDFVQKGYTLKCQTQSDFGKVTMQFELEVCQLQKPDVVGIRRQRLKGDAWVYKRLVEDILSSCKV
T8 sequence (Q96SB4 whole entry, the tested form may be a part): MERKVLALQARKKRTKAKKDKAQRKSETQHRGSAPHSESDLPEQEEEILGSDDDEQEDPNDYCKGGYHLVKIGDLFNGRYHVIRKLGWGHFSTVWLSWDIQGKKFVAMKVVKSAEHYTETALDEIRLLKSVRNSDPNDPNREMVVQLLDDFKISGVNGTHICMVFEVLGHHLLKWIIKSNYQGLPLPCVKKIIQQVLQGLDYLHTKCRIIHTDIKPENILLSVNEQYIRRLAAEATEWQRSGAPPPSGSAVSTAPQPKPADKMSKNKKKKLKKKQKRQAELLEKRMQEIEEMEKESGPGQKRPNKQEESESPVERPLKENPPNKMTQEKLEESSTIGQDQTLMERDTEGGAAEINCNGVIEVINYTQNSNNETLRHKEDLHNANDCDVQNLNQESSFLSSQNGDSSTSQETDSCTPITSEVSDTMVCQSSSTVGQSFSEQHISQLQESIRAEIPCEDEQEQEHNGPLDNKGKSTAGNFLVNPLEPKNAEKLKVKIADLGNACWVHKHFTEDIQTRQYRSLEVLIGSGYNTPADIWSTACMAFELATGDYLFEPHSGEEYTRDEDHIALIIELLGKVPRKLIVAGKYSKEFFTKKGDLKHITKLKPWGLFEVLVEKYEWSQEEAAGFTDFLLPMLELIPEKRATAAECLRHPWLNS
T1 sequence (P11362 22-822): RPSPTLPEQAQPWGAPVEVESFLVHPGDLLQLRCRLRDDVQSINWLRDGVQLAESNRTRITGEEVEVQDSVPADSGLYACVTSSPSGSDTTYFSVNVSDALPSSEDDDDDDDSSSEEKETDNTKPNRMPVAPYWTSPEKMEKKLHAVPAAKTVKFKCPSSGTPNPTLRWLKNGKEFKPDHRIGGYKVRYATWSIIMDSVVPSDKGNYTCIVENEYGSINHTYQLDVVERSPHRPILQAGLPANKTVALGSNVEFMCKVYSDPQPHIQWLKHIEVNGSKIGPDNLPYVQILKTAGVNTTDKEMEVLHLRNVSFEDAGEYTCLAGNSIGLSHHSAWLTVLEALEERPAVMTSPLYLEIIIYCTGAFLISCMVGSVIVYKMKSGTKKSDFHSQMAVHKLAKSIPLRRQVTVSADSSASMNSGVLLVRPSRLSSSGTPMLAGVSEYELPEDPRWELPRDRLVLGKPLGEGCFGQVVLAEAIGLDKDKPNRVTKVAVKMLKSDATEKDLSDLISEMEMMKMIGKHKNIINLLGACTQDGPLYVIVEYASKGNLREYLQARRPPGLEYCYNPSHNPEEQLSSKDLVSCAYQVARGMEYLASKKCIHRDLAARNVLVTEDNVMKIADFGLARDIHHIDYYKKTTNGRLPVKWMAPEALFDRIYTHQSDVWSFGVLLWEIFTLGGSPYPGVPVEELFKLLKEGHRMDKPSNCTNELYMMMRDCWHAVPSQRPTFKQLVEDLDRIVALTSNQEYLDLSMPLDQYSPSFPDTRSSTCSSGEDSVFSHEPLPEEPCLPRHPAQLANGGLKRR
T2 sequence (P15056 whole entry, the tested form may be a part): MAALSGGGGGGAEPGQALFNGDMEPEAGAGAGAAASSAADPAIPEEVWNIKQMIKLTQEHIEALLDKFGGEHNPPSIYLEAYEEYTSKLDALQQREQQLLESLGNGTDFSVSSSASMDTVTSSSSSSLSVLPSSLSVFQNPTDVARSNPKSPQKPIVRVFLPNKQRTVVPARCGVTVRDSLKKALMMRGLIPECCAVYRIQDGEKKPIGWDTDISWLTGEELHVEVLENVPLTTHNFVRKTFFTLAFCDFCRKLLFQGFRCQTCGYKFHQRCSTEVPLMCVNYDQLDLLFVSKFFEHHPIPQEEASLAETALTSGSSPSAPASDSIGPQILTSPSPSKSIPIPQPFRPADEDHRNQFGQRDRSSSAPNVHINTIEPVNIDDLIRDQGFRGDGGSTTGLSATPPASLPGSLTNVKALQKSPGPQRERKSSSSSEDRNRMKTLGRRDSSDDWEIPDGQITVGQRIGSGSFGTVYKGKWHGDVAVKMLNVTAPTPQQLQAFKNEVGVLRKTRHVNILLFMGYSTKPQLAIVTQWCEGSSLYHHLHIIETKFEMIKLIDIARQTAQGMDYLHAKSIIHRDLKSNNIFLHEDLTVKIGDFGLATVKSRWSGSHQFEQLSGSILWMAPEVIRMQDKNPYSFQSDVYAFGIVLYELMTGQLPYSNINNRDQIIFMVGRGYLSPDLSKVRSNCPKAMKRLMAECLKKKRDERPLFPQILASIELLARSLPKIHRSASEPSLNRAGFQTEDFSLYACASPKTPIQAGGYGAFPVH

| SMILES | dTm [1] | dTm [2] | dTm [3] | dTm [4] | dTm [5] | dTm [6] | dTm [7] | dTm [8] |
| --- | --- | --- | --- | --- | --- | --- | --- | --- |
| Cc1ccc(NC(=O)C2(C(=O)Nc3cccc(-c4c[nH]c5ncnc(N6CCOCC6)c45)c3)CC2)cc1 [Compound 14] | 0.77 K | 8.39 K | 7.03 K | -0.09 K | 4.57 K | -0.76 K | 11.82 K | 7.30 K |
| Cc1cc(NC(=O)C2(C(=O)Nc3ccc(F)cc3)CC2)cc(-c2c[nH]c3ncnc(N4CCOCC4)c23)c1 [Compound 6] | 0.32 K | 12.36 K | 2.92 K | 0.01 K | 5.72 K | 1.12 K | 11.24 K | 7.72 K |
| O=C(Nc1ccc(Cl)cc1)C1(C(=O)Nc2cccc(-c3c[nH]c4ncnc(N5CCOCC5)c34)c2)CC1 [Compound 13] | 1.36 K | 10.34 K | 8.33 K | 0.06 K | 6.50 K | -0.32 K | 15.01 K | 12.04 K |
| CCSc1nc(NC)c2c(-c3cccc(NC(=O)Nc4cc(C(C)(C)C)nn4-c4ccc(C)cc4)c3)c[nH]c2n1 [Compound 32] | 0.60 K | 0.90 K | 0.83 K | 0.25 K | 6.59 K | 0.38 K | 1.19 K | 0.80 K |
| O=C(Nc1ccc(F)cc1)C1(C(=O)Nc2cccc(-c3c[nH]c4ncnc(N5CCOCC5)c34)c2)CC1 [Compound 2] | 1.19 K | 9.50 K | 4.78 K | -0.20 K | 6.94 K | -0.63 K | 14.87 K | 10.56 K |
| O=C(Nc1cccc(-c2c[nH]c3ncnc(N4CCOCC4)c23)c1)c1cccn(-c2ccc(F)cc2)c1=O [Compound 4] | 3.37 K | 8.03 K | 7.66 K | -0.49 K | 3.00 K | -0.68 K | 12.90 K | 9.86 K |
| CNC(=O)c1cc(Oc2ccc(NC(=O)Nc3cc(C(C)(C)C)nn3-c3ccc4ncccc4c3)c(F)c2)ccn1 [Rebastinib, reference compound] | 5.75 K |  | 9.06 K | 0.54 K | 8.07 K | -0.79 K | 0.63 K | 14.66 K |
| CCc1ccc(NC(=O)C2(C(=O)Nc3cccc(-c4c[nH]c5ncnc(N6CCOCC6)c45)c3)CC2)cc1 [Compound 15] | 0.64 K | 9.26 K | 9.83 K | -0.47 K | 6.77 K | -1.02 K | 6.77 K | 5.47 K |
| Cc1ccc(C(=O)Nc2ccc(CN3CCN(C)CC3)c(C(F)(F)F)c2)cc1C#Cc1cnc2cccnn12 [Ponatinib, reference compound] | 11.47 K | 36.88 K | 4.72 K |  |  |  |  |  |
| CN[C@@H]1C[C@H]2O[C@@](C)([C@@H]1OC)n1c3ccccc3c3c4c(c5c6ccccc6n2c5c31)C(=O)NC4 [Staurosporine] |  |  |  |  |  |  | 14.15 K | 7.17 K |

Second part, the compound after the results:

| dTm [1] | dTm [2] | dTm [3] | dTm [4] | dTm [5] | dTm [6] | dTm [7] | dTm [8] | SMILES |
| --- | --- | --- | --- | --- | --- | --- | --- | --- |
| 0.76 K | 6.66 K | 4.12 K | 0.0359 K | 4.57 K | -0.12 K | 12.52 K | -0.47 K | O=C(Nc1cc(F)cc(Br)c1)C1(C(=O)Nc2cccc(-c3c[nH]c4ncnc(N5CCOCC5)c34)c2)CC1 [Compound 27] |
| 0.70 K | 4.18 K | 5.86 K | -0.34 K | 3.48 K | -0.98 K | 8.41 K | 3.35 K | COc1ccc(NC(=O)C2(C(=O)Nc3cccc(-c4c[nH]c5ncnc(N6CCOCC6)c45)c3)CC2)cc1 [Compound 16] |
| 1.65 K | 18.85 K | 1.78 K | -0.99 K | 2.15 K | -0.04 K | 2.91 K | 4.87 K | Cc1ccc(-n2nc(C(C)(C)C)cc2NC(=O)Nc2cccc(-c3c[nH]c4nc(Cl)nc(N5CCOCC5)c34)c2)cc1 [Compound 30] |
| 0.25 K | 1.48 K | 1.40 K | 0.38 K | 6.53 K | 0.77 K | 2.44 K | 0.15 K | CCNc1nc(Nc2cc(F)c(C(=O)N3CCOCC3)cc2OC)ncc1C(F)(F)F [GNE-7915] |
| 0.81 K | 8.44 K | 3.87 K | -0.19 K | 2.46 K | -1.04 K | 12.59 K | 3.79 K | Cc1cc(F)ccc1NC(=O)C1(C(=O)Nc2cccc(-c3c[nH]c4ncnc(N5CCOCC5)c34)c2)CC1 [Compound 24] |
| 1.39 K | 10.93 K | 4.67 K | -0.09 K | 7.84 K | -1.06 K | 16.69 K | 11.40 K | COc1cc(NC(=O)C2(C(=O)Nc3cccc(-c4c[nH]c5ncnc(N6CCOCC6)c45)c3)CC2)ccc1F [Compound 21] |
| 1.53 K | 15.10 K | 5.91 K | 0.30 K | 5.44 K | -0.60 K | 17.31 K | 9.79 K | CC(C)(C)c1cccc(NC(=O)C2(C(=O)Nc3cccc(-c4c[nH]c5ncnc(N6CCOCC6)c45)c3)CC2)c1 [Compound 22] |
| 5.95 K | 37.18 K | 12.74 K | -0.31 K | 4.46 K | -2.09 K | 6.41 K | 11.63 K | Cc1ccc(-n2nc(C(C)(C)C)cc2NC(=O)Nc2cccc(-c3c[nH]c4ncnc(N5CCOCC5)c34)c2)cc1 [Compound 29] |
| 0.52 K | 11.56 K | 3.68 K | -0.0637 K | 5.98 K | 0.24 K | 14.53 K | 4.56 K | O=C(Nc1cccc(-c2c[nH]c3ncnc(N4CCOCC4)c23)c1)C1(C(=O)Nc2cc(Br)c(F)cc2F)CC1 [Compound 25] |
